{
  "source": "patent US20240400555A1",
  "about": "(Initial Therapeutics, Inc., priority 2023, published 2024)",
  "data": [
    {"tested_on": "MV-4-11 cells", "assay": "Cell Viability Assay in MV-4-11 Cells", "format": "cell-based", "settings": "Homo sapiens, MV4-11, 72 h", "procedure,_shortened": "(§1)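 MV-4-11 cells at 7,000/well in IMDM with 10% FBS, exposed to compound for 72 h. Viability by CellTiter-Glo luminescence, normalized to DMSO as 100%, fitted with a four-parameter curve.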", "units": {"IC50": "nM"}, "values": [
      {"smiles": "O=C(c1ccc(-n2nnc3cccnc32)cc1F)N(c1nccc2cc(C#CCO)ccc12)[C@@H]1CCCNC1", "note": "[Example 398, (R)-4-(3H-[1,2,3]triazolo[4,5-b]pyridin-3-yl)-2-fluoro-N-(6-(3-hydroxyprop-1-yn-1-yl)isoquinolin-1-yl)-N-(piperidin-3-yl)benzamide]", "IC50": 71}
    ]},
    {"tested_on": "MV-4-11 cells", "assay": "Cell Viability Assay in MV-4-11 Cells", "format": "cell-based", "settings": "Homo sapiens, MV4-11, 72 h, MV-4-11 cells, 72 h, Cell-Titer Glo; read-out: IC50", "procedure,_shortened": "as §1", "units": {"IC50": "nM"}, "values": [
      {"smiles": "Cc1cccc2ccnc(N(C(=O)c3ccc(Nc4nccc(Nc5ccncc5)n4)cc3F)[C@@H]3CCCNC3)c12", "note": "[Example 683, (R)-2-fluoro-N-(8-methylisoquinolin-1-yl)-N-(piperidin-3-yl)-4-((4-(pyridin-4-ylamino)pyrimidin-2-yl)amino)benzamide]", "IC50": 210},
      {"smiles": "Cc1cccc2ccnc(N(C(=O)c3ccc(Nc4nccc(NC5CCOCC5)n4)cc3F)[C@@H]3CCCNC3)c12", "note": "[Example 954, (R)-2-fluoro-N-(8-methylisoquinolin-1-yl)-N-(piperidin-3-yl)-4-((4-((tetrahydro-2H-pyran-4-yl)amino)pyrimidin-2-yl)amino)benzamide]", "IC50": 31},
      {"smiles": "Cc1cc(-c2cccnc2)cc2ccnc(N(C(=O)c3ccc(-n4nnc5cccnc54)cc3F)[C@@H]3CCCNC3)c12", "note": "[Example 421, (R)-4-(3H-[1,2,3]triazolo[4,5-b]pyridin-3-yl)-2-fluoro-N-(8-methyl-6-(pyridin-3-yl)isoquinolin-1-yl)-N-(piperidin-3-yl)benzamide]", "IC50": 16},
      {"smiles": "CS(=O)(=O)c1cccc(-c2cc3c(N(C(=O)c4ccc(-n5nnc6cccnc65)cc4F)[C@@H]4CCCNC4)nccc3s2)c1", "note": "[Example 419, 2-fluoro-N-[2-(3-methylsulfonylphenyl)thieno[3,2-c]pyridin-4-yl]-N-[(3R)-3-piperidyl]-4-(triazolo[4,5-b]pyridin-3-yl)benzamide]", "IC50": 200},
      {"smiles": "Cn1cc(-c2ccc(C(=O)N(c3nccc4cc(-c5nnn[nH]5)ccc34)[C@@H]3CCCNC3)c(F)c2)nn1", "note": "[Example 405, (R)—N-(6-(1H-tetrazol-5-yl)isoquinolin-1-yl)-2-fluoro-4-(1-methyl-1H-1,2,3-triazol-4-yl)-N-(piperidin-3-yl)benzamide]", "IC50": 7800},
      {"smiles": "Cn1cc(-c2ccc(C(=O)N(c3nccc4sc(-c5ccc(S(=O)(=O)NCCN)cc5)cc34)[C@@H]3CCCNC3)c(F)c2)nn1", "note": "[Example 536, N-[2-[4-(2-aminoethylsulfamoyl)phenyl]thieno[3,2-c]pyridin-4-yl]-2-fluoro-4-(1-methyltriazol-4-yl)-N-[(3R)-3-piperidyl] benzamide]", "IC50": "> 10000"},
      {"smiles": "Cn1cc(-c2ccc(C(=O)N(c3nccc4sc(-c5ccc(C(C)(C)C(N)=O)cc5)cc34)[C@@H]3CCCNC3)c(F)c2)nn1", "note": "[Example 595]", "IC50": 470},
      {"smiles": "COC/C=C(\\Cl)c1ccnc(Nc2ccc(C(=O)N(c3nccc4cccc(C)c34)[C@@H]3CCCNC3)c(F)c2)n1", "note": "[Example 731, (R)-4-((4-(1-chloro-3-methoxyprop-1-en-1-yl)pyrimidin-2-yl)amino)-2-fluoro-N-(8-methylisoquinolin-1-yl)-N-(piperidin-3-yl)benzamide]", "IC50": 120},
      {"smiles": "CCn1cc(-c2ccc(C(=O)N(c3nccc4scc(C)c34)[C@@H]3CCCNC3)c(F)c2)nn1", "note": "[Example 704, (R)-4-(1-ethyl-1H-1,2,3-triazol-4-yl)-2-fluoro-N-(3-methylthieno[3,2-c]pyridin-4-yl)-N-(piperidin-3-yl)benzamide]", "IC50": 79},
      {"smiles": "Cc1cc(F)c(F)c2ccnc(N(C(=O)c3ccc(-c4cn(C)nn4)cc3)[C@@H]3CCCNC3)c12", "note": "[Example 862, N-(5,6-difluoro-8-methyl-1-isoquinolyl)-4-(1-methyltriazol-4-yl)-N-[(3R)-3-piperidyl]benzamide]", "IC50": 220},
      {"smiles": "COC/C=C/c1ccnc(Nc2ccc(C(=O)N(c3nccc4cccc(C)c34)[C@@H]3CCCNC3)c(F)c2)n1", "note": "[Example 749, (R,E)-2-fluoro-4-((4-(3-methoxyprop-1-en-1-yl)pyrimidin-2-yl)amino)-N-(8-methylisoquinolin-1-yl)-N-(piperidin-3-yl)benzamide]", "IC50": 140},
      {"smiles": "COCc1c(-c2ccc(C(=O)N(c3nccc4scc(C)c34)[C@@H]3CCCNC3)c(F)c2)nnn1C", "note": "[Example 851, 2-fluoro-4-[5-(methoxymethyl)-1-methyl-triazol-4-yl]-N-(3-methylthieno[3,2-c]pyridin-4-yl)-N-[(3R)-3-piperidyl]benzamide]", "IC50": 61},
      {"smiles": "CCc1nnc(-c2ccc(C(=O)N(c3nccc4c(F)ccc(C)c34)[C@@H]3CCCNC3)c(F)c2)s1", "note": "[Example 657, (R)-4-(5-ethyl-1,3,4-thiadiazol-2-yl)-2-fluoro-N-(5-fluoro-8-methylisoquinolin-1-yl)-N-(piperidin-3-yl)benzamide]", "IC50": 170},
      {"smiles": "[2H]C([2H])([2H])Oc1cc(C)c2c(N(C(=O)c3ccc(-c4nnc(C)s4)nc3)[C@@H]3CCCNC3)nccc2c1", "note": "[Example 909]", "IC50": 62},
      {"smiles": "Cc1cccc2ccnc(N(C(=O)c3ccc(Nc4nccc(-n5cncn5)n4)cc3F)[C@@H]3CCCNC3)c12", "note": "[Example 722, (R)-4-((4-(1H-1,2,4-triazol-1-yl)pyrimidin-2-yl)amino)-2-fluoro-N-(8-methylisoquinolin-1-yl)-N-(piperidin-3-yl)benzamide]", "IC50": 160},
      {"smiles": "O=C(c1ccc(-n2nnc3cccnc32)cc1F)N(c1nccc2cc(-c3cccs3)ccc12)[C@@H]1CCCNC1", "note": "[Example 368, (R)-4-(3H-[1,2,3]triazolo[4,5-b]pyridin-3-yl)-2-fluoro-N-(piperidin-3-yl)-N-(6-(thiophen-2-yl)isoquinolin-1-yl)benzamide]", "IC50": 500},
      {"smiles": "Cc1csc2ccnc(N(C(=O)c3ccc(-c4cn(C)nn4)cn3)[C@@H]3CCCNC3)c12", "note": "[Example 811, (R)-5-(1-methyl-1H-1,2,3-triazol-4-yl)-N-(3-methylthieno[3,2-c]pyridin-4-yl)-N-(piperidin-3-yl)picolinamide]", "IC50": 120},
      {"smiles": "COc1ccnc(Nc2ccc(C(=O)N(c3nccc4cccc(C)c34)[C@@H]3CCCNC3)c(F)c2)n1", "note": "[Example 951, 2-fluoro-4-[(4-methoxypyrimidin-2-yl)amino]-N-(8-methylisoquinolin-1-yl)-N-[(3R)-piperidin-3-yl]benzamide]", "IC50": 100},
      {"smiles": "Cn1cc(-c2ccc(C(=O)N(c3nccc4sc(-c5ccc(C(=O)NCCO)cc5)cc34)[C@@H]3CCCNC3)c(F)c2)nn1", "note": "[Example 524]", "IC50": "> 10000"},
      {"smiles": "Cc1cccc2ccnc(N(C(=O)N3CCCC(c4ncc(-c5ccccc5)[nH]4)C3)[C@@H]3CCCNC3)c12", "note": "(stereo partly drawn) [Example 341, N-(8-methylisoquinolin-1-yl)-3-(5-phenyl-1H-imidazol-2-yl)-N—((R)-piperidin-3-yl)piperidine-1-carboxamide]", "IC50": 370},
      {"smiles": "Cn1ccc2ccnc(N(C(=O)c3ccc(-c4cnn5cccnc45)cc3)[C@@H]3CCCNC3)c21", "note": "[Example 303, (R)—N-(1-methyl-1H-pyrrolo[2,3-c]pyridin-7-yl)-N-(piperidin-3-yl)-4-(pyrazolo[1,5-a]pyrimidin-3-yl)benzamide]", "IC50": 450},
      {"smiles": "Cc1cccc2ccnc(N(C(=O)c3ccc(-c4cncnc4N)cc3F)[C@@H]3CCCNC3)c12", "note": "[Example 353, (R)-4-(4-aminopyrimidin-5-yl)-2-fluoro-N-(8-methylisoquinolin-1-yl)-N-(piperidin-3-yl)benzamide]", "IC50": 540},
      {"smiles": "Cc1cc(F)cc2ccnc(N(C(=O)c3ccc(-c4nnn(C)c4C)cc3)[C@@H]3CCCNC3)c12", "note": "[Example 770, (R)-4-(1,5-dimethyl-1H-1,2,3-triazol-4-yl)-N-(6-fluoro-8-methylisoquinolin-1-yl)-N-(piperidin-3-yl)benzamide]", "IC50": 430},
      {"smiles": "CCc1nnc(-c2ccc(C(=O)N(c3nccc4scc(Cl)c34)[C@@H]3CCCNC3)nc2)s1", "note": "[Example 668, N-(3-chlorothieno[3,2-c]pyridin-4-yl)-5-(5-ethyl-1,3,4-thiadiazol-2-yl)-N-[(3R)-3-piperidyl]pyridine-2-carboxamide]", "IC50": 250},
      {"smiles": "Cc1nnc(-c2ccc(C(=O)N(c3nccc4cccc(C)c34)[C@@H]3CCCNC3)cn2)s1", "note": "[Example 622, (R)-6-(5-methyl-1,3,4-thiadiazol-2-yl)-N-(8-methylisoquinolin-1-yl)-N-(piperidin-3-yl)nicotinamide]", "IC50": 170},
      {"smiles": "NC(=O)/C=C/c1cc2c(N(C(=O)c3ccc(-n4nnc5cccnc54)cc3F)[C@@H]3CCCNC3)nccc2s1", "note": "[Example 442, N-[2-[(E)-3-amino-3-oxo-prop-1-enyl]thieno[3,2-c]pyridin-4-yl]-2-fluoro-N-[(3R)-3-piperidyl]-4-(triazolo[4,5-b]pyridin-3-yl)benzamide]", "IC50": 1000},
      {"smiles": "Cc1cccc2ccnc(N(C(=O)c3ccc(Nc4nccc(CN5CCN(C)CC5)n4)cc3F)[C@@H]3CCCNC3)c12", "note": "[Example 934, (R)-2-fluoro-N-(8-methylisoquinolin-1-yl)-4-((4-((4-methylpiperazin-1-yl)methyl)pyrimidin-2-yl)amino)-N-(piperidin-3-yl)benzamide]", "IC50": 120},
      {"smiles": "O=C(c1ccc(-n2nnc3cccnc32)cc1F)N(c1nccc2sc(-c3cscn3)cc12)[C@@H]1CCCNC1", "note": "[Example 416, 2-fluoro-N-[(3R)-3-piperidyl]-N-(2-thiazol-4-ylthieno[3,2-c]pyridin-4-yl)-4-(triazolo[4,5-b]pyridin-3-yl)benzamide]", "IC50": 180},
      {"smiles": "O=C(c1ccc(-n2nnc3cccnc32)cc1F)N(c1nccc2cc(-c3ccccn3)ccc12)[C@@H]1CCCNC1", "note": "[Example 556, (R)-4-(3H-[1,2,3]triazolo[4,5-b]pyridin-3-yl)-2-fluoro-N-(piperidin-3-yl)-N-(6-(pyridin-2-yl)isoquinolin-1-yl) benzamide]", "IC50": 650},
      {"smiles": "CNC(=O)C#Cc1cc2c(N(C(=O)c3ccc(-n4nnc5cccnc54)cc3F)[C@@H]3CCCNC3)nccc2s1", "note": "[Example 549, 2-fluoro-N-[2-[3-(methylamino)-3-oxo-prop-1-ynyl]thieno[3,2-c]pyridin-4-yl]-N-[(3R)-3-piperidyl]-4-(triazolo [4,5-b]pyridin-3-yl)benzamide]", "IC50": 1500},
      {"smiles": "Cc1cccc2ccnc(N(C(=O)c3ccc(-c4nn(C)nc4Br)cc3F)[C@@H]3CCCNC3)c12", "note": "[Example 390, 4-(5-bromo-2-methyl-triazol-4-yl)-2-fluoro-N-(8-methyl-1-isoquinolyl)-N-[(3R)-3-piperidyl] benzamide]", "IC50": 240}
    ]}
  ]
}
